In ChEMBL document CHEMBL1140490, “Design and synthesis via click chemistry of 8,9-anhydroerythromycin A 6,9-hemiketal analogues with anti-MRSA and -VRE activity” (2007):
In brackets after ≈: the same amount, converted by molar mass.

Assays:
[1] = system: Staphylococcus aureus; assay: Antimicrobial activity against methicillin-resistant Staphylococcus aureus 92-1191 by serial dilution method; format: functional
[2] = system: Staphylococcus aureus; assay: (§1) Antimicrobial activity against Staphylococcus aureus 8325 by serial dilution method; format: functional
[3] = system: Escherichia coli; assay: Antimicrobial activity against Escherichia coli NIHJ JC-2 by serial dilution method; format: functional
[4] = system: Enterococcus faecium; assay: Antimicrobial activity against vancomycin-resistant Enterococcus faecium NCTC-12203 by serial dilution method
[5] = system: Enterococcus faecalis; assay: Antimicrobial activity against vancomycin-resistant Enterococcus faecalis NCTC-12201 by serial dilution method; format: functional
[6] = system: Staphylococcus aureus; assay: Antimicrobial activity against Staphylococcus aureus Smith by serial dilution method; format: functional
[7] = system: Staphylococcus aureus; assay: Antimicrobial activity against methicillin-resistant Staphylococcus aureus 70 by serial dilution method; format: functional
[8] = system: Staphylococcus aureus; assay: as §1; format: functional; remark: listed apart in the source
[9] = system: Staphylococcus aureus; assay: Antimicrobial activity against Staphylococcus aureus FDA209P by serial dilution method; format: functional
[10] = system: Staphylococcus aureus; assay: Antimicrobial activity against Staphylococcus aureus ISP217 by serial dilution method; format: functional
[11] = system: Staphylococcus aureus; assay: Antimicrobial activity against methicillin-resistant Staphylococcus aureus N315 IR94 by serial dilution method; format: functional
[12] = system: Staphylococcus aureus; assay: Antimicrobial activity against methicillin-resistant Staphylococcus aureus N315 IR94-HR-1 by serial dilution method; format: functional
[13] = system: Staphylococcus aureus; assay: Antimicrobial activity against Staphylococcus aureus ISP447 by serial dilution method; format: functional

CC[C@H]1OC(=O)[C@H](C)[C@@H](O[C@H]2C[C@@](C)(OC)[C@@H](O)[C@H](C)O2)[C@H](C)[C@@H](O[C@@H]2O[C@H](C)C[C@H](N(C)C)[C@H]2O)[C@@]2(C)CC(C)=C(O2)[C@H](C)[C@@H](OC(=O)C(C)C)[C@]1(C)OC(=O)C(C)C
MIC [1]: 32 µg/mL (≈ 37.4 µM)
MIC [2]: 32 µg/mL (≈ 37.4 µM)
MIC [3]: > 128 µg/mL
MIC [4]: 32 µg/mL (≈ 37.4 µM)
MIC [5]: 64 µg/mL (≈ 74.8 µM)
MIC [6]: 16 µg/mL (≈ 18.7 µM)
MIC [7]: 32 µg/mL (≈ 37.4 µM)
MIC [8]: 16 µg/mL (≈ 18.7 µM)
MIC [9]: 16 µg/mL (≈ 18.7 µM)
MIC [10]: 16 µg/mL (≈ 18.7 µM)
MIC [11]: 16 µg/mL (≈ 18.7 µM)
MIC [12]: 16 µg/mL (≈ 18.7 µM)
MIC [13]: 32 µg/mL (≈ 37.4 µM)

CC[C@H]1OC(=O)[C@H](C)[C@@H](OCc2cn(CC(=O)O)nn2)[C@H](C)[C@@H](O[C@@H]2O[C@H](C)C[C@H](N(C)C)[C@H]2O)[C@@]2(C)CC(C)=C(O2)[C@H](C)[C@@H](OC(=O)C(C)C)[C@]1(C)OC(=O)C(C)C
MIC [2]: > 128 µg/mL
MIC [3]: > 128 µg/mL
MIC [4]: > 128 µg/mL
MIC [5]: > 128 µg/mL
MIC [6]: > 128 µg/mL
MIC [8]: > 128 µg/mL
MIC [9]: > 128 µg/mL
MIC [10]: > 128 µg/mL
MIC [13]: > 128 µg/mL

CC[C@H]1OC(=O)[C@H](C)[C@@H](OCc2cn(CC(=O)OCc3ccccc3)nn2)[C@H](C)[C@@H](O[C@@H]2O[C@H](C)C[C@H](N(C)C)[C@H]2O)[C@@]2(C)CC(C)=C(O2)[C@H](C)[C@@H](OC(=O)C(C)C)[C@]1(C)OC(=O)C(C)C
MIC [1]: 32 µg/mL (≈ 34.5 µM)
MIC [2]: 64 µg/mL (≈ 69 µM)
MIC [3]: > 128 µg/mL
MIC [4]: 32 µg/mL (≈ 34.5 µM)
MIC [5]: 32 µg/mL (≈ 34.5 µM)
MIC [6]: 128 µg/mL (≈ 138 µM)
MIC [7]: 16 µg/mL (≈ 17.3 µM)
MIC [8]: 16 µg/mL (≈ 17.3 µM)
MIC [9]: 32 µg/mL (≈ 34.5 µM)
MIC [10]: 16 µg/mL (≈ 17.3 µM)
MIC [11]: 16 µg/mL (≈ 17.3 µM)
MIC [12]: 16 µg/mL (≈ 17.3 µM)
MIC [13]: 64 µg/mL (≈ 69 µM)

CC[C@H]1OC(=O)[C@H](C)[C@@H](OCc2cn(Cc3ccccc3)nn2)[C@H](C)[C@@H](O[C@@H]2O[C@H](C)C[C@H](N(C)C)[C@H]2O)[C@@]2(C)CC(C)=C(O2)[C@H](C)[C@@H](OC(=O)C(C)C)[C@]1(C)OC(=O)C(C)C
MIC [1]: 16 µg/mL (≈ 18.4 µM)
MIC [2]: 16 µg/mL (≈ 18.4 µM)
MIC [3]: > 128 µg/mL
MIC [4]: 16 µg/mL (≈ 18.4 µM)
MIC [5]: 16 µg/mL (≈ 18.4 µM)
MIC [6]: 32 µg/mL (≈ 36.8 µM)
MIC [7]: 16 µg/mL (≈ 18.4 µM)
MIC [8]: 8 µg/mL (≈ 9.2 µM)
MIC [9]: 16 µg/mL (≈ 18.4 µM)
MIC [10]: 16 µg/mL (≈ 18.4 µM)
MIC [11]: 8 µg/mL (≈ 9.2 µM)
MIC [12]: 8 µg/mL (≈ 9.2 µM)
MIC [13]: 16 µg/mL (≈ 18.4 µM)

CC[C@H]1OC(=O)[C@H](C)[C@@H](O[C@H]2C[C@@](C)(OC)[C@@H](OC=O)[C@H](C)O2)[C@H](C)[C@@H](O[C@@H]2O[C@H](C)C[C@H](N(C)C)[C@H]2OC(C)=O)[C@@]2(C)CC(C)=C(O2)[C@H](C)[C@@H](OC(=O)C(C)C)[C@]1(C)OC(=O)C(C)C
MIC [2]: 32 µg/mL (≈ 34.6 µM)
MIC [3]: > 128 µg/mL
MIC [4]: 32 µg/mL (≈ 34.6 µM)
MIC [5]: 32 µg/mL (≈ 34.6 µM)
MIC [6]: 16 µg/mL (≈ 17.3 µM)
MIC [7]: 16 µg/mL (≈ 17.3 µM)
MIC [8]: 16 µg/mL (≈ 17.3 µM)
MIC [9]: 16 µg/mL (≈ 17.3 µM)
MIC [10]: 16 µg/mL (≈ 17.3 µM)
MIC [11]: 16 µg/mL (≈ 17.3 µM)
MIC [12]: 16 µg/mL (≈ 17.3 µM)
MIC [13]: 16 µg/mL (≈ 17.3 µM)

CC[C@H]1OC(=O)[C@H](C)[C@@H](OCc2cn(-c3cccnc3)nn2)[C@H](C)[C@@H](O[C@@H]2O[C@H](C)C[C@H](N(C)C)[C@H]2O)[C@@]2(C)CC(C)=C(O2)[C@H](C)[C@@H](OC(=O)C(C)C)[C@]1(C)OC(=O)C(C)C
MIC [1]: 32 µg/mL (≈ 37.4 µM)
MIC [2]: 128 µg/mL (≈ 150 µM)
MIC [3]: > 128 µg/mL
MIC [4]: 16 µg/mL (≈ 18.7 µM)
MIC [5]: 32 µg/mL (≈ 37.4 µM)
MIC [6]: 64 µg/mL (≈ 74.8 µM)
MIC [7]: 16 µg/mL (≈ 18.7 µM)
MIC [8]: 16 µg/mL (≈ 18.7 µM)
MIC [9]: 32 µg/mL (≈ 37.4 µM)
MIC [10]: 16 µg/mL (≈ 18.7 µM)
MIC [11]: 16 µg/mL (≈ 18.7 µM)
MIC [12]: 16 µg/mL (≈ 18.7 µM)
MIC [13]: 64 µg/mL (≈ 74.8 µM)

CC[C@H]1OC(=O)[C@H](C)[C@@H](O[C@H]2C[C@@](C)(OC)[C@@H](O)[C@H](C)O2)[C@H](C)[C@@H](O[C@@H]2O[C@H](C)C[C@H](N(C)C)[C@H]2O)[C@](C)(O)C[C@@H](C)C(=O)[C@H](C)[C@@H](O)[C@]1(C)O [ERYTHROMYCIN]
MIC [1]: > 128 µg/mL
MIC [2]: 64 µg/mL (≈ 87.2 µM)
MIC [3]: > 256 µg/mL
MIC [4]: > 256 µg/mL
MIC [5]: > 256 µg/mL
MIC [6]: ≤ 0.5 µg/mL
MIC [8]: > 256 µg/mL
MIC [9]: ≤ 0.5 µg/mL
MIC [10]: > 256 µg/mL
MIC [13]: > 256 µg/mL

CC[C@H]1OC(=O)[C@H](C)[C@@H](OCc2cn(CSc3ccccc3)nn2)[C@H](C)[C@@H](O[C@@H]2O[C@H](C)C[C@H](N(C)C)[C@H]2O)[C@@]2(C)CC(C)=C(O2)[C@H](C)[C@@H](OC(=O)C(C)C)[C@]1(C)OC(=O)C(C)C
MIC [1]: 16 µg/mL (≈ 17.8 µM)
MIC [2]: 16 µg/mL (≈ 17.8 µM)
MIC [3]: > 128 µg/mL
MIC [4]: 16 µg/mL (≈ 17.8 µM)
MIC [5]: 16 µg/mL (≈ 17.8 µM)
MIC [6]: 32 µg/mL (≈ 35.5 µM)
MIC [7]: 16 µg/mL (≈ 17.8 µM)
MIC [8]: 16 µg/mL (≈ 17.8 µM)
MIC [9]: 16 µg/mL (≈ 17.8 µM)
MIC [10]: 16 µg/mL (≈ 17.8 µM)
MIC [11]: 8 µg/mL (≈ 8.88 µM)
MIC [12]: 8 µg/mL (≈ 8.88 µM)
MIC [13]: 16 µg/mL (≈ 17.8 µM)

CC[C@H]1OC(=O)[C@H](C)[C@@H](OCc2cn(-c3cnc4ccccc4c3)nn2)[C@H](C)[C@@H](O[C@@H]2O[C@H](C)C[C@H](N(C)C)[C@H]2O)[C@@]2(C)CC(C)=C(O2)[C@H](C)[C@@H](OC(=O)C(C)C)[C@]1(C)OC(=O)C(C)C
MIC [1]: 16 µg/mL (≈ 17.7 µM)
MIC [2]: 32 µg/mL (≈ 35.3 µM)
MIC [3]: > 128 µg/mL
MIC [4]: 16 µg/mL (≈ 17.7 µM)
MIC [5]: 32 µg/mL (≈ 35.3 µM)
MIC [6]: 32 µg/mL (≈ 35.3 µM)
MIC [7]: 16 µg/mL (≈ 17.7 µM)
MIC [8]: 8 µg/mL (≈ 8.83 µM)
MIC [9]: 16 µg/mL (≈ 17.7 µM)
MIC [10]: 16 µg/mL (≈ 17.7 µM)
MIC [11]: 8 µg/mL (≈ 8.83 µM)
MIC [12]: 16 µg/mL (≈ 17.7 µM)
MIC [13]: 32 µg/mL (≈ 35.3 µM)

C#CCO[C@H]1[C@H](C)[C@@H](O[C@@H]2O[C@H](C)C[C@H](N(C)C)[C@H]2O)[C@@]2(C)CC(C)=C(O2)[C@H](C)[C@@H](OC(=O)C(C)C)[C@](C)(OC(=O)C(C)C)[C@@H](CC)OC(=O)[C@@H]1C
MIC [1]: 16 µg/mL (≈ 21.7 µM)
MIC [2]: 32 µg/mL (≈ 43.5 µM)
MIC [3]: > 128 µg/mL
MIC [4]: 16 µg/mL (≈ 21.7 µM)
MIC [5]: 16 µg/mL (≈ 21.7 µM)
MIC [6]: 32 µg/mL (≈ 43.5 µM)
MIC [7]: 16 µg/mL (≈ 21.7 µM)
MIC [8]: 16 µg/mL (≈ 21.7 µM)
MIC [9]: 32 µg/mL (≈ 43.5 µM)
MIC [10]: 16 µg/mL (≈ 21.7 µM)
MIC [11]: 16 µg/mL (≈ 21.7 µM)
MIC [12]: 16 µg/mL (≈ 21.7 µM)
MIC [13]: 32 µg/mL (≈ 43.5 µM)
